pIC50: −log10 of the molar value.
Molecular target: T1, CETP (Homo sapiens, UniProt P11597)
T1 construct: from tissue; host or cells: plasma from a healthy volunteer (diluted to 0.64%)
T1 sequence (P11597 18-493): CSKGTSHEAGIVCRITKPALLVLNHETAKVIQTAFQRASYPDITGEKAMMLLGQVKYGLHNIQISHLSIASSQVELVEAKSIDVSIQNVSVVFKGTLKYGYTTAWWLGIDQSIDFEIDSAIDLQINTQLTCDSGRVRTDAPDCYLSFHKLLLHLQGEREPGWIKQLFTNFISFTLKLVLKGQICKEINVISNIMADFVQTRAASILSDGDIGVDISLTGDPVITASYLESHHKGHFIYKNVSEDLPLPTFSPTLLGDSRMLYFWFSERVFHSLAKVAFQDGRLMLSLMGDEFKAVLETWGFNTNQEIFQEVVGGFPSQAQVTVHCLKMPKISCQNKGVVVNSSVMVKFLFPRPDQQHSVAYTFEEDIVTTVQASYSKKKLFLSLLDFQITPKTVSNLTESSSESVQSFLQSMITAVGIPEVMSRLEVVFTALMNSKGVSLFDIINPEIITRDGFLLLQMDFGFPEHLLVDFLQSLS
Experiment: Inhibitory activity against CETP in vitro (fluorescent BODIPY-CE transfer from donor to acceptor microemulsion in diluted human plasma)
Assay type: biochemical
Settings: plasma from a healthy volunteer diluted to 0.64%; preincubation with test solution 37° C. 24 hours; incubation with donor/acceptor microemulsion 37° C. 3 hours; fluorescence Ex.550 nm/Em.600 nm
Protocol: The inhibitory activity of the compounds of the present invention against CETP was tested in this experiment.
A solution of 1-Palmitoyl-2-oleoyl-sn-glycero-3-phosphocholine (3.5 mg), cholesteryl oleate (3 mg) and triolein (0.7 mg) in chloroform was mixed and lipid was air-dried under nitrogen gas to remove solvent. Dioxane (0.25 ml) was then added and the mixture was stirred for dissolution. The resultant lipid solution (0.2 ml) was slowly injected under the surface of Tris-saline-EDTA(TSE) buffer solution [10 mM Tris/HCl (pH 7.4), 0.15 M NaCl, 2 mM EDTA] (10 ml) with Hamilton syringe, while sonicating in ice-bath. After 1-hour-sonication in ice-bath, the solution was stored at 4° C.
A solution of egg PC (phosphatidylcholine) (0.33 mg) and BODIPY-CE (0.62 mg) in chloroform was mixed. After removing solvent by air-drying lipid under nitrogen gas, TSE buffer solution (3 ml) was added and the solution was sonicated in ice-bath. This solution was filtered to sterilize through 0.22 μm filter and stored at 4° C.
A test solution was prepared using dimethyl sulfoxide as a solvent. Plasma from a healthy volunteer was diluted to 0.64% with TSE buffer, and to the resultant plasma solution (187 μl) was added a test solution (3 μl) or the solvent alone followed by incubation at 37° C. for 24 hours. After addition of TSE buffer solution (10 μl) containing 5% donor microemulsion and 5% acceptor microemulsion, the mixture was incubated at 37° C. for 3 hours. Before and after the incubation, the fluorescence intensity was measured at Ex.550 nm/Em.600 nm. CETP activity was defined as the difference between the measurements obtained before incubation and after incubation. The decreasing rate of the difference in the sample was defined as the inhibition rate of CETP activity. IC50 for each sample was calculated from the inhibition rate of CETP activity.

| Structure (SMILES) | pIC50 |
| --- | --- |
| CCOC(=O)N1c2ccc(OC)nc2[C@@H](N(Cc2cc(C(F)(F)F)cc(C(F)(F)F)c2)c2ncc(N3CCOCC3)cn2)C[C@H]1CC [Example 22] | 9.41 |
| CC[C@@H]1C[C@H](N(Cc2cc(C(F)(F)F)cc(C(F)(F)F)c2)c2ncc(N3CCOCC3)cn2)c2nc(OC)ccc2N1C(=O)OCC(C)(C)C(=O)O [Example 409] | 9.08 |
| CCOC(=O)N1c2ccc(OC)nc2[C@@H](N(Cc2cc(C(F)(F)F)cc(C(F)(F)F)c2)c2ccc(N3CCC(C(=O)O)CC3)cn2)C[C@H]1CC [Example 383] | 8.34 |
| CCOC(=O)N1c2ccc(OC)nc2[C@@H](N(Cc2cc(C(F)(F)F)cc(C(F)(F)F)c2)c2ncc(OCCS(C)(=O)=O)cn2)C[C@H]1CC [Example 116] | 9.96 |
| CCOC(=O)N1c2ccc(N(C)C)nc2[C@@H](N(Cc2cc(C(F)(F)F)cc(C(F)(F)F)c2)c2ncc(N3CCN(C(C)=O)CC3)cn2)C[C@H]1CC [Example 337, (2R,4S)-4-{[5-(4-acetylpiperazin-1-yl)pyrimidin-2-yl]-[3,5-bis(trifluoromethyl)-benzyl]}amino-6-dimethylamino-2-ethyl-3,4-dihydro-2H-[1,5]naphthyridine-1-carboxylic acid ethyl ester] | 9.40 |
| CCC1CC(N(Cc2cc(C(F)(F)F)cc(C(F)(F)F)c2)c2ncc(CCC(=O)O)cn2)c2nc(OC)ccc2N1C(=O)OCC(F)(F)F (stereo not shown) [Example 356] | 9.01 |
| CCOC(=O)N1c2ccc(OC)nc2[C@@H](N(Cc2cc(C(F)(F)F)cc(C(F)(F)F)c2)c2ncc(OCCC(=O)O)cn2)C[C@H]1CC [Example 269, (2R,4S)-4-{[3,5-bis(trifluoromethyl)benzyl]-[5-(2-carboxyethoxy)pyrimidin-2-yl]}amino-2-ethyl-6-methoxy-3,4-dihydro-2H-[1,5]naphthyridine-1-carboxylic acid ethyl ester] | 8.72 |
